According to PMC10384408, “Anticancer Tungstenocenes with a Diverse Set of (O,O–), (O,S–) and (O,N–) Chelates—A Detailed Biological Study Using an Improved Evaluation via 3D Spheroid Models” (Pharmaceutics, 2023):

Tests used:
[1] = tested on: A549 (non-small cell lung carcinoma) cells; assay: MTT cytotoxicity assay, A549 monolayer; format: cell-based, human; conditions: exposure time 96 h, mean ± SD
Experimental: (§1) CH1/PA-1 (ovarian teratocarcinoma), SW480 (colon carcinoma) and A549 (non-small cell lung cancer) cells were maintained as described in the reference. IMR-90 human fetal lung fibroblasts (from the European Collection of Authenticated Cell Cultures, Porton Down, Salisbury, UK) were cultured in Stable Cell^TM DMEM/F12 supplemented with 0.01 mg/mL human recombinant insulin (both purchased from Sigma-Aldrich) and 10% fetal bovine serum (FBS, BioWest, Nuaillé, France). Human colon carcinoma cell lines HCT116 and HT29 (both kindly provided by the Institute of Cancer Research, Department of Medicine I, Medical University of Vienna, Austria) were cultured in McCoy’s 5a medium supplemented with 4 mM L-glutamine (both purchased from Sigma-Aldrich) and 10% FBS. MCF-7 human breast adenocarcinoma cells (kindly provided by M. Ogris, Department of Pharmaceutical Sciences, University of Vienna, Austria) were maintained in DMEM (high glucose) supplemented with 4 mM L-glutamine, 0.1 mg/mL human insulin (all purchased from Sigma-Aldrich) and 10% FBS. All cell lines were grown as monolayers in 75 cm^2 culture flasks (CytoOne, Starlab, Hamburg, Germany) at 37 °C in a humidified atmosphere containing 5% CO2.
(§2) Exponentially growing cells were plated into 96-well microculture plates (CytoOne, tissue culture treated, Starlab, Hamburg, Germany) in densities of 1 × 10^3 CH1/PA-1, 2 × 10^3 SW480, 3 × 10^3 A549 and 7 × 10^3 IMR-90 cells per well (each in 100 µL). After a 24 h preincubation, drugs were added in serial dilution to give a final volume of 200 µL/well and exposed for 96 h. At the end of the exposure, the drug solutions were replaced by 100 µL RPMI 1640/MTT mixture (7:1 ratio). MTT (3-(4,5-dimethylthiazol-2-yl)-2,5-diphenyl-2H-tetrazolium bromide), (Acros Organics, Geel, Belgium) solution was prepared in phosphate-buffered saline (5 mg/mL) and mixed with RPMI1640 medium supplemented with 4 mM L-glutamine (both from Sigma-Aldrich) and 10% FBS. After 4 h incubation, the formazan crystals were solubilized in 150 µL of DMSO per well. Absorbance was measured at 550 nm (and at 690 nm as a reference) with a microplate reader (ELx808, BioTek, Winoosky, VT, USA) and Gen5^TM 3.08 software (BioTek). The 50% inhibitory concentrations (IC50) relative to untreated controls were interpolated from concentration-effect curves. At least three biologically and technically independent experiments were performed.

[2] = tested on: SW480 (colon carcinoma) cells; assay: MTT cytotoxicity assay, SW480 monolayer; format: cell-based, human; conditions: exposure time 96 h, mean ± SD
Experimental: as §1, §2

[3] = tested on: CH1/PA-1 (ovarian teratocarcinoma) cells; assay: MTT cytotoxicity assay, CH1/PA-1 monolayer; format: cell-based, human; conditions: exposure time 96 h, mean ± SD
Experimental: as §1, §2

[4] = tested on: IMR-90 human lung fibroblasts; assay: MTT cytotoxicity assay, IMR-90 fibroblasts; format: cell-based; conditions: exposure time 96 h, mean ± SD
Experimental: as §1, §2

HCT116 cells = assay: Resazurin assay, HCT116 2D monolayer; format: cell-based, human; conditions: 96 h
Experimental: as §1
(§3) For the resazurin assay in monolayer cultures, cells were seeded into 96-well microculture plates (CytoOne, tissue culture treated, Starlab, Hamburg, Germany) in densities of 2 × 10^3 HCT116, 2 × 10^3 HT29 and 4 × 10^3 MCF-7 cells per well (each in 100 µL). For tests in 3D cultures, spheroids were grown as described above. After 24 h (for monolayers) or 4 days (for spheroids) the test compounds in the appropriate medium were added in serial dilution to the plates to obtain a total volume of 200 µL/well. Wells without cells, containing medium and resazurin (Alfa Aesar, Thermo Fisher, Kandel, Germany) solution were used as blanks. After 96 h exposure 20 µL of the resazurin solution (440 µM) were added to each well, followed by a 4 h (2D) or 12 h (3D) incubation period. Resorufin fluorescence was quantified at 530 nm (and a reference wavelength of 620 nm) by using a microplate reader (Synergy HT, BioTek) with Gen5^TM 3.10 software (BioTek).

HT29 cells [5] = assay: Resazurin assay, HT29 2D monolayer; format: cell-based, human; conditions: 96 h
Experimental: as §1, §3

HT29 cells [6] = assay: Annexin V-FITC/PI apoptosis assay, HT29; conditions: HT29, 24 h, 200 µM; for ∑apoptotic cells [%]: sum of early and late
MCF-7 cells = assay: Annexin V-FITC/PI apoptosis assay, MCF-7; conditions: MCF-7, 24 h, 200 µM; for ∑apoptotic cells [%]: sum of early and late
[7] = Aqueous stability by UV/Vis in PBS; format: physicochemical; conditions: 24 h, 293 K, 1 vol% DMSO
Experimental: Stock solutions in DMSO of compounds 1–10 were utilized to determine the solubility in PBS by adding 1 vol% of the stock solution to a suitable amount of PBS. […] UV/Vis data were recorded on a Perkin Elmer Lambda 650 UV/Vis Spectrophotometer with a Peltier element for temperature control.
In order to examine the stability of the compounds in aqueous solution, UV/Vis measurements were performed every hour during 24 h at 293 K. Solutions of compounds 1–10 were prepared in PBS (10%) from a previously prepared DMSO stock solution of each compound. The total concentration of DMSO was 1 vol% for the final complex solutions of 1–10.

[8] = tested on: HCT116, HT29 and MCF-7 cell lines; assay: ROS detection (DCFH-DA assay); format: cell-based, human; conditions: 2, 20, 100 and 200 µM, 2 h
Experimental: Reactive oxygen species (ROS) generation was measured by means of the DCFH-DA assay. […] On the following day, cells were washed with 200 µL Hanks’ balanced salt solution (HBSS, Sigma-Aldrich, containing 1% FBS) and stained with 100 µL of 25 µM DCFH-DA (2′,7′-dichlorofluorescein diacetate, Sigma-Aldrich) in HBSS (containing 1% FBS) for 45 min at 37 °C in the dark. After the incubation period, cells were washed with 200 µL HBSS (1% FBS) and loaded with compounds at concentrations of 2 µM, 20 µM, 100 µM and 200 µM in 200 µL phenol-red-free MEM (1% FBS) in triplicates. As positive controls, cells were treated with 200 µM and 400 µM tert-butylhydroperoxide (Sigma-Aldrich). Wells containing only phenol-red-free medium with 1% FBS were used as blanks, and non-drug treated, cell containing wells as reference values. Fluorescence (excitation: 485/20 nm, emission: 516/20 nm) was recorded in 10 min intervals with the Synergy HT reader (BioTek) over 2 h.

Structure (SMILES)	IC50 [1]	IC50 [2]	IC50 [3]	IC50 [4]	IC50 (HCT116 cells)	IC50 (HT29 cells [5])	early apoptotic cells [%] AV+ / PI- (HT29 cells [6])	late apoptotic cells [%] AV+ / PI+ (HT29 cells [6])	necrotic cells [%] AV- / PI+ (HT29 cells [6])	viable cells [%] AV- / PI- (HT29 cells [6])	∑apoptotic cells [%] (HT29 cells [6])	early apoptotic cells [%] AV+ / PI- (MCF-7 cells)	late apoptotic cells [%] AV+ / PI+ (MCF-7 cells)	necrotic cells [%] AV- / PI+ (MCF-7 cells)	viable cells [%] AV- / PI- (MCF-7 cells)	∑apoptotic cells [%] (MCF-7 cells)	precipitation in PBS [7]	intracellular ROS levels [8]
Cc1occc(=S)c1[O-].F[P-](F)(F)(F)(F)F.[W+4].c1cc[cH-]c1.c1cc[cH-]c1 [Compound 2, Bis(η^5-cyclopentadienyl)[2-methyl-3-(oxo-κO)-4-(1H)-pyran-4-thionato-κS]tungsten(IV) hexafluorophosphate]	36 ± 6 µM	36 ± 7 µM	24 ± 3 µM	107 ± 30 µM	98 ± 12 µM	53 ± 9 µM	3.9 ± 1.8%	6.1 ± 1.0%	3.3 ± 2.4%	86.8 ± 2.4%	10%	7.4 ± 2.7%	22.7 ± 4.5%	14.9 ± 8.3%	55.1 ± 10.1%			
F[P-](F)(F)(F)(F)F.O=C([O-])c1ccccn1.[W+4].c1cc[cH-]c1.c1cc[cH-]c1 [Compound 5, Bis(η^5-cyclopentadienyl)[2-(carboxylato-κO)-pyridine-κN]tungsten(IV) hexafluorophosphate]	> 200 µM	147 ± 21 µM	> 200 µM		> 200 µM	> 200 µM	0.9 ± 0.7%	5.3 ± 6.9%	2.3 ± 1.5%		6.2%	1.3 ± 0.7%	7.9 ± 5.3%	4.2 ±2.2%		9.2%		
Cc1c([O-])c(=O)ccn1C.F[P-](F)(F)(F)(F)F.[W+4].c1cc[cH-]c1.c1cc[cH-]c1 [Compound 6, Bis(η^5-cyclopentadienyl)[1,2-dimethyl-3-(oxo-κO)-4-(1H)-pyridonato-κO]tungsten(IV) hexafluorophosphate]	141 ± 36 µM	154 ± 29 µM	> 200 µM		> 200 µM	> 200 µM	4.3 ± 1.8%	4.2 ± 0.6%	2.4 ± 0.7%	89.1 ± 0.4%	8.5%	1.4 ± 0.8%	3.6 ± 1.5%	2.1 ± 0.5%	92.8 ± 2.2%	5.1%		
Cc1cc(=O)c([O-])co1.F[P-](F)(F)(F)(F)F.[W+4].c1cc[cH-]c1.c1cc[cH-]c1 [Compound 7, Bis(η^5-cyclopentadienyl)[2-methyl-5-(oxo-κO)-4-(1H)-pyran-4-ato-κO] tungsten(IV) hexafluorophosphate]	> 200 µM	> 200 µM	152 ± 16 µM		> 200 µM	> 200 µM	3.0 ± 1.6%	5.5 ± 1.9%	3.1 ± 2.3%	88.4 ± 3.8%	8.5%	1.3 ± 0.4%	8.1 ± 5.5%	3.2 ± 1.2%	87.4 ± 6.6%	9.4%	slowly precipitate out of the solution over time	
Cc1cc(=S)c([O-])co1.F[P-](F)(F)(F)(F)F.[W+4].c1cc[cH-]c1.c1cc[cH-]c1 [Compound 8, Bis(η^5-cyclopentadienyl)[2-methyl-5-(oxo-κO)-pyran-4-(1H)-thionato-κS] tungsten(IV) hexafluorophosphate]	> 200 µM	129 ± 14 µM	93 ± 15 µM		> 200 µM	> 200 µM	3.3 ± 2.1%	6.2 ± 4.1%	2.1 ± 0.9%	88.4 ± 3.6%	9.5%	1.2 ± 0.3%	8.7 ± 6.9%	2.7 ± 1.4%	87.3 ± 8.3%	9.9%	slowly precipitate out of the solution over time	
CCc1occc(=O)c1[O-].F[P-](F)(F)(F)(F)F.[W+4].c1cc[cH-]c1.c1cc[cH-]c1 [Compound 9, Bis(η^5-cyclopentadienyl)[2-ethyl-3-(oxo-κO)-4-(1H)-pyran-4-ato-κO] tungsten(IV) hexafluorophosphate]	> 200 µM	101 ± 15 µM	> 200 µM		> 200 µM	> 200 µM	0.9 ± 0.6%	3.9 ± 4.5%	2.3 ± 1.3%	92.9 ± 5.8%	4.8%	1.6 ± 1.0%	8.4 ± 5.5%	2.9 ± 1.8%	87.2 ± 7.2%			Pronounced elevation of ROS levels
